pEC50: −log10 of the molar value. Values after ≈ are worked out from the molar mass of the structure shown.
Legend:
Plasmodium falciparum [1] = experiment: Antimalarial activity against chloroquine and pyrimethamine-resistant Plasmodium falciparum W2 infected in human A positive erythrocytes after 72 hrs by SYBR Green I assay; type: functional, organism-based; conditions: W2, 72 h
Plasmodium falciparum [2] = experiment: Antimalarial activity against chloroquine, mefloquine, pyrimethamine and atovaquone-resistant Plasmodium falciparum TM90-C2B infected in human A positive erythrocytes after 72 hrs by SYBR Green I assay; type: functional, organism-based
Plasmodium falciparum [3] = experiment: Resistance index, ratio of EC50 for chloroquine, mefloquine, pyrimethamine and atovaquone-resistant Plasmodium falciparum TM90-C2B to EC50 for chloroquine and pyrimethamine-resistant Plasmodium falciparum W2; type: functional
[4] = Aqueous solubility of compound at pH 7.4 by HPLC analysis; conditions: buffer
[5] = Permeability of the compound by PAMPA method at pH 7.4; type: ADME; conditions: read-out: permeability
[6] = Partition coefficient, log D of the compound at pH 7.4 by HPLC analysis; conditions: octanol/water
[7] = Cytotoxicity index, ratio of EC50 for mouse J774 cells to EC50 for chloroquine, mefloquine, pyrimethamine and atovaquone-resistant Plasmodium falciparum TM90-C2B; type: cell-based; conditions: read-out: Ratio EC50
J774 = experiment: Cytotoxicity against mouse J774 cells after 72 hrs by Cell titer 96 aqueous one solution cell proliferation assay; type: cell-based; conditions: J774, 72 h

Compound | pEC50 (Plasmodium falciparum [1]) | pEC50 (Plasmodium falciparum [2]) | Ratio EC50 (Plasmodium falciparum [3]) | solubility [4] [µM] | Papp [5] [nm/s] | logD [6] | selectivity ratio [7] | pEC50 (J774)
O=C1CC(c2ccc(Cl)cc2Cl)Cc2nc3ccc(Cl)cc3c(O)c21 (stereo unspecified) | 8.06 | 7.56 | 3.19 | 1 (≈ 0.393 µg/mL) | 200 | 3.1 | ≥ 100 | –
Cc1cc2[nH]c3c(c(=O)c2cc1C)CCCC3 | 6.58 | 6.67 | – | 41 (≈ 9.32 µg/mL) | 460 | – | – | < 4.70
O=c1c2c([nH]c3ccc(Cl)cc13)CCCC2 | 7.00 | 7.20 | 0.63 | 4 (≈ 0.935 µg/mL) | 570 | 2 | ≥ 100 | < 5.70
O=c1c2c([nH]c3cccc(Cl)c13)CCCC2 | 6.43 | 6.35 | 1.22 | 99 (≈ 23.1 µg/mL) | 470 | 1.8 | ≥ 100 | < 5.30
CC1(C)CCc2[nH]c3ccccc3c(=O)c2C1 | 6.38 | 6.53 | 0.7 | 35 (≈ 7.96 µg/mL) | 430 | 1.8 | ≥ 100 | < 4.70
COc1cccc2c(=O)c3c([nH]c12)CCC(C)(C)C3 | 5.70 | 6.21 | 0.31 | 91 (≈ 23.4 µg/mL) | 950 | 2.4 | ≥ 100 | < 4.40
COc1ccc2[nH]c3c(c(=O)c2c1)CC(C)(C)CC3 | 5.08 | < 5.01 | >1.16 | 38 (≈ 9.78 µg/mL) | 730 | 2 | ≥ 100 | < 4.70
COc1cccc2[nH]c3c(c(=O)c12)CC(C)(C)CC3 | 5.28 | 5.46 | 0.67 | 83 (≈ 21.4 µg/mL) | 540 | 1.9 | ≥ 100 | < 4.70
Cc1cccc2c(=O)c3c([nH]c12)CCC(C)(C)C3 | 6.10 | 6.27 | 0.67 | 38 (≈ 9.17 µg/mL) | 900 | 2.3 | ≥ 100 | < 4.40
COc1ccc2[nH]c3c(c(=O)c2c1)CCC(C)(C)C3 | < 5.01 | < 5.01 | – | 9.2 (≈ 2.37 µg/mL) | 1280 | 2.3 | ≥ 100 | < 5.30
Cc1cccc2[nH]c3c(c(=O)c12)CCC(C)(C)C3 | < 5.00 | < 5.00 | – | 9 (≈ 2.17 µg/mL) | 2400 | 2.8 | ≥ 100 | < 5.30
CC1(C)CCc2c([nH]c3cc(Cl)ccc3c2=O)C1 | 5.97 | 6.19 | 0.6 | 1 (≈ 0.262 µg/mL) | – | 2.9 | ≥ 100 | < 6.00
CC(C)(C)c1cccc2c(=O)c3c([nH]c12)CCCC3 | < 5.01 | < 5.01 | – | 90 (≈ 23 µg/mL) | 5530 | 3.3 | ≥ 100 | < 5.00
O=c1c2c([nH]c3c(C(F)(F)F)cccc13)CCCC2 | < 5.03 | < 5.03 | – | 116 (≈ 31 µg/mL) | 2460 | 2.6 | ≥ 100 | < 4.70
Cc1cc(C)c2c(=O)c3c([nH]c2c1)CCCC3 | 5.50 | 5.32 | 1.54 | 17 (≈ 3.86 µg/mL) | 2180 | 2.4 | ≥ 100 | –
COc1ccc(OC)c2c(=O)c3c([nH]c12)CCCC3 | < 5.02 | < 5.02 | – | 105 (≈ 27.2 µg/mL) | 90 | 1.5 | ≥ 100 | < 4.70
COc1ccc2c(=O)c3c([nH]c2c1)CCC3 | 5.95 | 6.21 | 0.54 | 91 (≈ 19.6 µg/mL) | 110 | 1.5 | ≥ 100 | < 4.40
COc1ccc2c(=O)c3c([nH]c2c1)CCCCC3 | 6.77 | 6.82 | 0.89 | 30 (≈ 7.3 µg/mL) | 390 | 2.1 | ≥ 100 | < 4.70
COc1ccc2c(=O)c3c([nH]c2c1)CCCCCC3 | 6.84 | 6.64 | 1.58 | 98 (≈ 25.2 µg/mL) | 730 | 2.4 | ≥ 100 | < 4.40

Reference: ChEMBL document CHEMBL1799910, “Optimization of 1,2,3,4-tetrahydroacridin-9(10H)-ones as antimalarials utilizing structure-activity and structure-property relationships” (J Med Chem, 2011)
